Data taken from PMC12250302, “Synthesis, Antimicrobial Activities, and Model of Action of Novel Tetralone Derivatives Containing Aminoguanidinium Moiety” (International Journal of Molecular Sciences, 2025).
In brackets after ≈: the same amount, converted by molar mass.

Assays:
E. coli ATCC 25922 = test: MIC and MBC testing, broth microdilution; format: cell-based, Escherichia coli; settings: Escherichia coli
Procedure, shortened: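 Log-phase cultures diluted in Mueller-Hinton broth to 1 × 10^6 CFU/mL were exposed to doubling dilutions of DMSO-dissolved compounds at 37 °C for 18 h, each concentration in triplicate. Lowest concentration lacking visible growth recorded as MIC; controls were levofloxacin and 0.1% DMSO.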

MRSA-1 = test: MIC and MBC testing, broth microdilution; format: cell-based, Staphylococcus aureus; settings: Staphylococcus aureus, MRSA-1
Procedure, shortened: (§1)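 Broth microdilution in MH broth; two-fold serial dilutions of DMSO-dissolved compound; inoculum 1 × 10^6 CFU/mL from log-phase culture; 37 °C, 18 h; triplicates; MBC also read.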

MRSA-2 [1] = test: MIC and MBC testing, broth microdilution; format: cell-based, Staphylococcus aureus; settings: Staphylococcus aureus, MRSA-2
Procedure, shortened: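 MIC and MBC determined by broth microdilution with twofold compound dilutions (from DMSO stock) in MH broth. Log-phase inoculum at 1 × 10^6 CFU/mL; 18 h incubation at 37 °C.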

[2] = test system: clinical S. aureus isolate LMY45; test: MIC and MBC testing, broth microdilution; format: cell-based, Staphylococcus aureus; settings: Staphylococcus aureus, LMY45
Procedure, shortened: as §1

[3] = test system: clinical S. aureus isolate LMY46; test: MIC and MBC testing, broth microdilution; format: cell-based, Staphylococcus aureus; settings: Staphylococcus aureus, LMY46
Procedure, shortened: as §1

[4] = test system: clinical S. aureus isolate LMY47; test: MIC and MBC testing, broth microdilution; format: cell-based, Staphylococcus aureus; settings: Staphylococcus aureus, LMY47
Procedure, shortened: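 Compounds in DMSO were serially two-fold diluted in MH broth and mixed with log-phase bacteria diluted to 1 × 10^6 CFU/mL in MH broth, then incubated 18 h at 37 °C. MBC values were also determined. Each concentration was tested in triplicate.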

[5] = test system: clinical S. aureus isolate LMY48; test: MIC and MBC testing, broth microdilution; format: cell-based, Staphylococcus aureus; settings: Staphylococcus aureus, LMY48
Procedure, shortened: as §1

sheep red blood cells = test: Hemolytic activity; format: cell-based
Experimental: The hemolysis of compound 2D was determined by its ability to lyse sheep red blood cells. The results were expressed as the HC50 value (the concentration at which 50% of red blood cells were lysed).
The sterile defibrillated sheep blood cells were centrifuged (5000 rpm, 5 min) and then washed three times with 0.9% saline. Subsequently, 1 μL of different concentrations of 2D (0.5–128 μg/mL) was mixed with 999 μL of red blood cell suspension. After incubation at 37 °C for 1 h, the mixed solution was centrifuged. The absorbance of the supernatant at 570 nm was measured. Triton X-100 (0.1%) was used as a positive control, and DMSO was used as a negative control. The hemolysis rate was calculated according to the following formula:Hemolysis rate (%) = (ODTreatment − ODNegative)/(ODPositive − ODNegative) × 100%(1)

MRSA-2 biofilm = test: Biofilm elimination assay (crystal violet); format: cell-based, Staphylococcus aureus; settings: 0.25 μg/mL, 24 h
Experimental: The ability of 2D to eliminate biofilm was evaluated. MRSA-2 (1 × 10^6 CFU/mL) was incubated in 96-well plates for 24 h until biofilm formation. The planktonic bacteria were discarded and washed thrice with PBS. […] According to the above method, the OD575 nm value was detected after the following steps: PBS washing, methanol fixation, crystal violet staining, and ethanol incubation.

MRSA-2 [6] = test: Growth curve (OD600); format: cell-based, Staphylococcus aureus; settings: 2D 0.5, 1, 2, 4, 8 µg/mL, vancomycin 0.5 and 1 μg/mL
Experimental: (§2) The growth inhibition and time-dependent killing abilities of 2D were evaluated against S. aureus (ATCC 29213) and MRSA-2. After culturing the strains in MH broth until the logarithmic growth phase, they were diluted with MH broth to 1 × 10^6 CFU/mL. […] OD600 values were measured at predetermined time intervals (0, 1, 2, 4, 6, 8, 10, 12, and 24 h).

S. aureus (ATCC 29213) = test: Growth curve (OD600); format: cell-based, Staphylococcus aureus; settings: 2D 0.5, 1, 2, 4, 8 µg/mL, vancomycin 0.5 and 1 μg/mL
Experimental: as §2

MRSA-2 [7] = test: Bacterial DNA and protein leakage experiment; format: cell-based, Staphylococcus aureus; settings: compared with the control group; 4 h
Experimental: MRSA-2 was cultured to logarithmic growth phase. The bacterial precipitate was collected, washed twice with PBS (pH = 7.2–7.4), and resuspended in PBS to 1 × 10^7 CFU/mL. […] After centrifugation of 1 mL of the suspension, the supernatant was collected. The protein level was measured by BCA protein concentration kits (Servicebio, Hubei, China), and the DNA level was detected by microspectrophotometer.

MIC (E. coli ATCC 25922; ATCC25922, 18 h, read-out: MIC): 4 µg/mL (≈ 12.6 µM)
MIC (MRSA-1; 18 h, read-out: MIC): 1 µg/mL (≈ 3.16 µM)
MIC (MRSA-2 [1]; 18 h, read-out: MIC): 1 µg/mL (≈ 3.16 µM)
MIC ([2]; 18 h, read-out: MIC): 2 µg/mL (≈ 6.32 µM)
MIC ([3]; 18 h, read-out: MIC): 4 µg/mL (≈ 12.6 µM)
MIC ([4]; 18 h, read-out: MIC): 1 µg/mL (≈ 3.16 µM)
MIC ([5]; 18 h, read-out: MIC): 2 µg/mL (≈ 6.32 µM)
Compound: [H]/N=C(\N)NN=C1CCCc2cc(OCCCCCCC)ccc21 [Compound 2D, (E)-2-(6-(heptyloxy)-3,4-dihydronaphthalen-1(2H)-ylidene)hydrazine-1-carboximidamide]
MBC (E. coli ATCC 25922; ATCC25922, read-out: MBC): 8 µg/mL (≈ 25.3 µM)
MBC (MRSA-1; read-out: MBC): 16 µg/mL (≈ 50.6 µM)
MBC (MRSA-2 [1]; read-out: MBC): 4 µg/mL (≈ 12.6 µM)
MBC ([2]; read-out: MBC): 2 µg/mL (≈ 6.32 µM)
MBC ([3]; read-out: MBC): 32 µg/mL (≈ 101 µM)
MBC ([4]; read-out: MBC): 4 µg/mL (≈ 12.6 µM)
MBC ([5]; read-out: MBC): 2 µg/mL (≈ 6.32 µM)
Selectivity index (SI) (sheep red blood cells; SI = HC50/MIC ATCC 29213): 101.30
HC50 (sheep red blood cells; sheep red blood cells, 37 °C, 1 h): 50.65 µg/mL
biofilm elimination rate (MRSA-2 biofilm): 21.4%
growth inhibition (growth curve) (MRSA-2 [6]): able to suppress the growth
growth inhibition (growth curve) (S. aureus (ATCC 29213)): able to suppress the growth
content of extracellular DNA (MRSA-2 [7]): significantly increased
content of extracellular protein (MRSA-2 [7]): significantly increased
